Results as given in patent US5753516A, “Screening method for ligands of the EBI-1 receptor” (priority 1995, dated 1998).
“And” between values parts separate entries of the source, which are not always exact repeats. Equal entries are not always repeated. “Also recorded” adds a separate entry of the source. Where two headings read alike, the source gives them in different places.

Columns and labels:
NALM 6 cells [1] = assay: Migration (chemotaxis) of NALM 6 pre-B ALL cells; assay type: cell-based, human; details: for Number of cells at 40 μm from origin: cells preincubated with mAb (MET-ENK line: buffer, alone); for cell counts, migration to MET-ENK without naloxone: spontaneous 1647
NALM 6 cells [2] = assay: Flow cytometry of surface molecule expression on NALM 6 cells; assay type: cell-based, human; details: for surface expression of CD9: NALM 6 / pre-B ALL cells
Protocol: NALM 6 cells (10^6 /ml) were incubated at 37° with MET-ENK (10^-7 M) for 0 (Panel A and B) or 30 minutes (Panel C and D). Cells were then transferred to an ice bath, pelleted by centrifugation, and stained for immunofluorescent analysis and flow cytoflourimetry. Data are shown as histograms depicting the distribution of 10,000 cells labeled with anti-CD9 (Panel A and C) or CD-10 (Panel B and D) mAb. The anti-CD9 and anti-CD10 mAb used for these experiments were isotype matched (IgG1).
(§1) FIG. 4, Panels A-C. […] Data are presented as mean fluorescence intensities measured for 10,000 cells labeled with anti-CD9 or CD10 mAb. In Panel A, the NALM 6 Cells were incubated with MET-ENK (10^-7 M) for the times indicated. In Panel B, the LAZ 221 cells were incubated with MET-ENK at the doses indicated for 5 minutes at 37° C. […] The anti-CD9 and anti-CD10 mAb used for these experiments were of the IgG2a isotype.
(§2) Immunofluorescence Staining and Flow Cytometric Analysis of Cell Surface Molecules: Cells were resuspended at 1×10^6 /ml in PBS and then incubated for periods of 5 to 120 minutes at 37° C. with MET-ENK at doses of 0 to 10^-5 M. Incubations were terminated by transferring samples to an ice bath and then pelleting the cells by centrifugation at 1800 rpm for 5 minutes at 4° C.
(§3) Immunofluorescence staining was carried out in 4-ml tubes maintained in an ice water bath. […] Cells were subsequently fixed within a 2% solution of formalin and maintained in the dark at 10° C. until analyzed.
(§4) Flow cytometric analysis was performed using a FACS SCAN Flow Cytometer (Becton Dickinson, Mountain View, Calif.) equipped with a HP9000 Series computer and the Lysys System software analysis package. Data were collected as histograms depicting the fluorescence intensity for 5,000 to 10,000 cells per sample.
(§5) The non-binding IgG1 MOPC myeloma protein, anti-macrophage/monocyte specific CD14 (MO2; IgG2) and anti-T cell specific CD3 (OKT3; IgG2a) mAb were employed as nonreactive controls for measuring the autofluorescence of B cells.

LAZ 221 cells = assay: Flow cytometry of surface molecule expression on LAZ 221 cells; assay type: cell-based, human
Protocol: as §1, §2, §3, §4, §5

NALM 6 cells [3] = assay: MET-ENK-FITC binding to NALM 6 cells (flow cytometry, Scatchard); parameters: species or system human; details: NALM 6
Jurkat cells = assay: MET-ENK-FITC binding to Jurkat cells (flow cytometry, Scatchard); parameters: species or system human
NALM 6 cells [4] = assay: [Ca^2+ ]i response of NALM 6 / leukemia cells (Indo-1, flow cytometry); assay type: cell-based, human
Protocol: FIG. 15, Panels A-C. […] Cells were labeled with Indo-1 as previously described (Rabinovitch et al., 1986), washed twice in serum-free medium and held at 4° C. until flow cytometric analysis. The violet/blue fluorescence ratio was measured using previously described methods (Rabinovitch et al., 1986). Nonstimulated cells (measured in medium, alone) were used to establish a relative violet/blue ratio arbitrarily set at 1.0 as previously described (Rabinovitch). Calibration of [Ca^2+ ]i was carried out as previously described by Rabinovitch et al (1986) using the formula: [formula]
Rmax values were determined by measuring the maximum shift in indo violet/blue fluorescence for cells treated with 4 μM ionomycin. Rmin was measured as the minimum ratio for the violet blue fluorescence of ionomycin treated cells following the addition of 8 mM EGTA. […] The Kd (effective dissociation constant) was set at 250 nM.

EBI1 = molecular target: T1, EBI1 (Homo sapiens, UniProt P32248)
T1 sequence (P32248 25-378): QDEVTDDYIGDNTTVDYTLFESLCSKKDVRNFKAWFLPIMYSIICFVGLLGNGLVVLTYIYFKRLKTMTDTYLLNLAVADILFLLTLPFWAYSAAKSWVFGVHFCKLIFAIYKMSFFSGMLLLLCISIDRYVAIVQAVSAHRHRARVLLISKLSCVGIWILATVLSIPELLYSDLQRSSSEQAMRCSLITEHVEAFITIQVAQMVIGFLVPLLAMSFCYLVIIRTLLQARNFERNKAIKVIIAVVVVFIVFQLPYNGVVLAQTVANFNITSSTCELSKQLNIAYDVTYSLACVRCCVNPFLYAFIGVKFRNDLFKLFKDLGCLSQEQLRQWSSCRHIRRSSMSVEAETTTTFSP

NALM 6 cells [5] = details: cited from earlier work
murine splenocytes = details: cited from earlier work
[6] = NALM 6, 10^-7 M MET-ENK, untreated 1.0
[7] = NALM 6, 10^-7 M MET-ENK, untreated 1.1
[8] = NALM 6, 10^-7 M MET-ENK, untreated 1.8
[9] = LAZ 221, 10^-7 M MET-ENK, untreated 1.0
[10] = LAZ 221, 10^-7 M MET-ENK, untreated 1.7
[11] = listed as methionine enkephalin
[12] = read-out: Kd, high affinity site
[13] = read-out: Kd, low affinity site

Structure (SMILES): CSCC[C@H](NC(=O)[C@H](Cc1ccccc1)NC(=O)CNC(=O)CNC(=O)[C@@H](N)Cc1ccc(O)cc1)C(=O)O [MET-ENK, Tyr-Gly-Gly-Phe-Met]
- Number of cells at 40 μm from origin (NALM 6 cells [1]; MET-ENK 0.01 nM): 238
- cell counts, migration to MET-ENK without naloxone (NALM 6 cells [1]; MET-ENK 1 nM): 2925 cell counts
- Number of cells at 40 μm from origin (NALM 6 cells [1]; MET-ENK 1.0 nM): 407
- cell counts, migration to MET-ENK without naloxone (NALM 6 cells [1]; MET-ENK 100 nM): 3492 cell counts
- Number of cells at 40 μm from origin (NALM 6 cells [1]; MET-ENK 100 nM): 637
- cell migration (cell counts) (NALM 6 cells [1]; NALM 6, peptide 100 nM, spontaneous locomotion 2190): 6952 cell counts
- effect on migration of pre-B ALL cells (NALM 6 cells [1]; NALM 6 and LAZ 221 cells): potent stimulus for the migration of NALM 6 and LAZ 221 (pre-B ALL) but not LAZ 388 (EBV-transformed) cells
- concentration at which effect on migration is detected (NALM 6 cells [1]; NALM 6 and LAZ 221 pre-B ALL cells): ≤ 10 pM
- duration of enhanced CD9 expression (NALM 6 cells [2]; MET-ENK 10^-7 M): 60 min
- time of decline of CD9 expression to near baseline (NALM 6 cells [2]; MET-ENK 10^-7 M): 120 min
- incubation time causing increase in CD9 expression (NALM 6 cells [2]; MET-ENK 10^-7 M, pre-B ALL cells): ≤ 10 min
- staining for β-1 integrins, MET-ENK treated vs not (NALM 6 cells [2]; NALM 6): equivalent on NALM 6 cells incubated with (+) or without (-) MET-ENK
- CD11b (Mac 1) fluorescence ratio (mAb/isotype control) (NALM 6 cells [2]; NALM 6, 10^-7 M MET-ENK 30 min, untreated 1.0): 1.1
- CD4 fluorescence ratio (NALM 6 cells [2]; [6]): 1.0
- CD44 (homing receptor) fluorescence ratio (NALM 6 cells [2]; [6]): 2.2
- CD49b (VLA-α2 chain) fluorescence ratio (NALM 6 cells [2]; [6]): 0.9
- CD58 (LFA-3) fluorescence ratio (NALM 6 cells [2]; [6]): 0.9
- CD18 (Integrin β chain) fluorescence ratio (NALM 6 cells [2]; [7]): 1.4
- CD45 (T200) fluorescence ratio (NALM 6 cells [2]; [7]): 1.0
- VLA-1 fluorescence ratio (NALM 6 cells [2]; [7]): 0.6
- VLA-3 fluorescence ratio (NALM 6 cells [2]; [7]): 0.7
- CD20 fluorescence ratio (NALM 6 cells [2]; NALM 6, 10^-7 M MET-ENK, untreated 1.5): 1.3
- CD72 fluorescence ratio (NALM 6 cells [2]; NALM 6, 10^-7 M MET-ENK, untreated 1.6): 2.8
- CD23 fluorescence ratio (NALM 6 cells [2]; [8]): 1.6
- CD49f (VLA-α6 chain) fluorescence ratio (NALM 6 cells [2]; [8]): 1.3
- CD22 fluorescence ratio (NALM 6 cells [2]; NALM 6, 10^-7 M MET-ENK, untreated 2.3): 3.1
- CD49d (VLA-α4 chain) fluorescence ratio (NALM 6 cells [2]; NALM 6, 10^-7 M MET-ENK, untreated 3.9): 4.4
- VLA-5 fluorescence ratio (NALM 6 cells [2]; NALM 6, 10^-7 M MET-ENK, untreated 5.2): 4.9
- CD29 (VLA-β chain) fluorescence ratio (NALM 6 cells [2]; NALM 6, 10^-7 M MET-ENK, untreated 8.4): 9.3
- CD54 (ICAM-1) fluorescence ratio (NALM 6 cells [2]; NALM 6, 10^-7 M MET-ENK, untreated 9.3): 10.5
- VLA-β; DE9N fluorescence ratio (NALM 6 cells [2]; NALM 6, 10^-7 M MET-ENK, untreated 13.6): 13.8
- surface expression of CD10 (NALM 6 cells [2]; NALM 6 / LAZ 221): no effect on CD10 expression
- surface expression of CD9 (NALM 6 cells [2]): upregulation of CD9; also recorded: transient increase in their surface expression of CD9 but not CD10 molecules
- surface expression of CD9 (NALM 6 cells [2]; listed as Methionine-enkephalin): discrete, transient up-regulation in the CD9 molecules; also recorded: rapid and dose-dependentincrease in the CD9 but not CD10 molecules
- CD9 expression, cells in ice water bath (NALM 6 cells [2]; ice water bath, data not shown): had no effect when they were maintained in an ice water bath
- surface expression of CD9 (LAZ 221 cells; LAZ 221): transient increase in their surface expression of CD9 but not CD10 molecules
- CD2 (LFA-2) fluorescence ratio (LAZ 221 cells; LAZ 221, 10^-7 M MET-ENK, untreated 0.9): 1.0
- CD4 fluorescence ratio (LAZ 221 cells; [9]): 1.0
- CD11a (LF1α) fluorescence ratio (LAZ 221 cells; [9]): 1.1
- CD18 (Integrin β chain) fluorescence ratio (LAZ 221 cells; [9]): 1.1
- CD20 fluorescence ratio (LAZ 221 cells; [9]): 1.1
- CD11b (Mac 1) fluorescence ratio (LAZ 221 cells; LAZ 221, 10^-7 M MET-ENK, untreated 1.4): 1.5
- CD54 (ICAM-1) fluorescence ratio (LAZ 221 cells; LAZ 221, 10^-7 M MET-ENK, untreated 1.5): 1.5
- CD19 fluorescence ratio (LAZ 221 cells; [10]): 1.9
- CD29 (VLA-β chain) fluorescence ratio (LAZ 221 cells; [10]): 1.9
- CD58 (LFA-3) fluorescence ratio (LAZ 221 cells; [10]): 1.9
- VLA-β; DE9N fluorescence ratio (LAZ 221 cells; LAZ 221, 10^-7 M MET-ENK, untreated 5.8): 5.6
- lowest dose increasing CD9 expression (LAZ 221 cells; LAZ 221, 5 minutes at 37° C.): 10^-11 M
- Bmax, low affinity sites (NALM 6 cells [3]): 4.48×10^4 sites/cell
- number of high affinity sites (NALM 6 cells [3]): 25.9 pM
- number of low affinity sites (NALM 6 cells [3]): 149 pM
- Bmax, low affinity sites (NALM 6 cells [3]; [11]): 4.48×10^4 sites/cell
- Kd (NALM 6 cells [3]; [12]): 1.01 nM
- Kd (NALM 6 cells [3]; [13]): 318 nM
- Bmax, low affinity sites (Jurkat cells): 3.3×10^4 sites/cell and 3.0×10^4 sites/cell
- number of high affinity sites (Jurkat cells): 3.3 pM
- number of low affinity sites (Jurkat cells): 101 pM
- Bmax, low affinity sites (Jurkat cells; [11]): 3.0×10^4 sites/cell
- Kd (Jurkat cells; [12]): 1.36 nM
- Kd (Jurkat cells; [13]): 318 nM
- [Ca^2+ ]i response (NALM 6 cells [4]): rapid rise in the concentration of free intracellular Ca2+; also recorded: rapid rise in [Ca^2+ ]i
- [Ca^2+ ]i response (NALM 6 cells [4]; listed as methionine-enkephalin): concentration dependent rise in [Ca^2+ ]i
- cAMP (EBI1): 109.6 fmoles/cell × 10^3
- lag phase before [Ca^2+ ]i rise (NALM 6 cells [5]): ~ 30 sec
- humoral / antibody response (murine splenocytes): diminished
